Measurements published in US7709010B2, “Papillomavirus vaccine compositions” (Merck Sharp & Dohme Corp., priority 2007, dated 2010).

How the values were obtained:
[1] = tested on: microorganisms (e.g., bacteria and fungi); assay: Anti-microbial effectiveness (AME) test (USP, EP-B, EP-A criteria); type: cell-based; conditions: initial screening, octavalent HPV formulation with MAA, stored one week at 2-8° C. before test
Procedure: The effectiveness of various preservatives in candidate HPV vaccine formulations was evaluated using an antimicrobial test (anti-microbial effectiveness (AME) test). AME testing was used to determine the ability of a preservative to reduce or eliminate microbes that may be introduced into the vial following product withdrawal. […] Briefly, the AME test comprises the EPA, EPB and USP criteria, which consist of inoculating 10^5-10^6 CFU/mL microorganisms (e.g., bacteria and fungi) per container at time zero, and evaluating the log reduction over time (Meyer et al., supra).
Thimerosal was also included as a reference.
All samples contained 562.5 mcg/mL MAA, 0.32 M NaCl, 10 mM His, 0.01% polysorbate-80 (PS-80), pH 6.2. Formulations containing chlorobutanol and propylparaben were tested with and without the addition of 120 mcg/mL ISCOMATRIX®.
Preservatives were added to octavalent HPV formulations comprising 8 types of HPV VLPs, as described in EXAMPLE 1, and were stored for one week at 2-8° C. prior to AME testing.
Several HPV vaccine formulations with various dose and combinations of preservatives, in the presence or absence of IMX adjuvant, were tested.
Each type of HPV VLP aqueous bulk was absorbed on MAA separately with a protein-to-adjuvant ratio of 0.71 to form the monovalent vaccines in 0.32 M NaCl, 10 mM Histidine (pH 6.2), 0.01% (w/v) PS-80. […]

[2] = biological target: HPV18 VLPs (Human papillomavirus type 18, UniProt P06794); type: physicochemical, HPV; conditions: data not shown
HPV18 VLPs, sequence (P06794 whole entry): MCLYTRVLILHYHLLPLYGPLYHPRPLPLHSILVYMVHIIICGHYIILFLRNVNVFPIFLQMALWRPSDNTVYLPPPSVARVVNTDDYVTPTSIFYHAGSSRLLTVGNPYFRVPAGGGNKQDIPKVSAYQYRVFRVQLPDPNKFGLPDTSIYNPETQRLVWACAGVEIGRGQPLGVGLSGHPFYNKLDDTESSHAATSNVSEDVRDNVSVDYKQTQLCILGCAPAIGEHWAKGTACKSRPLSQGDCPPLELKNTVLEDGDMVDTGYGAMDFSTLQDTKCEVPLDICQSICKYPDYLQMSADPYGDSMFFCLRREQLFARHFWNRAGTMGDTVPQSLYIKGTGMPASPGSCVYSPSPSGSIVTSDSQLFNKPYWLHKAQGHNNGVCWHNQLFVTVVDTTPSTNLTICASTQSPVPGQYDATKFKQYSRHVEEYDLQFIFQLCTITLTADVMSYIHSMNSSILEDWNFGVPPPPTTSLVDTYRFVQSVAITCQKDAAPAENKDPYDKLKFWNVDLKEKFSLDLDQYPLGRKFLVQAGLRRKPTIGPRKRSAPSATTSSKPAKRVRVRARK
Procedure: Differential Scanning Calorimetry (DSC) was used to evaluate the impact of preservatives on protein structural and thermal stability. The analysis for antigen thermal stability was determined using a VP-Capillary DSC Platform (MicroCal, LLC, Northampton, Mass.). A detailed description of the conditions utilized is disclosed in Ionescu et al. (2007) (J. Pharm. Sci. 97(4): 1414-1426 (2008)).
The DSC evaluation was carried out in the presence of various preservatives with varied concentrations.

[3] = biological target: HPV Type 18 VLPs (Human papillomavirus type 18, UniProt P06794); type: binding; conditions: HPV18 VLPs, 2 months at 2-8° C., n=2, Biacore
HPV Type 18 VLPs, sequence (P06794 whole entry): as above
Procedure: The in vitro antigenicity of HPV vaccine formulations comprising HPV18 VLPs and different preservatives was evaluated using a neutralization antibody binding assay (Biacore, Surface Plasmon Resonance). The analysis for antigen bioactivity was determined using the Biacore 2000 (VPR 332) and Biacore 3000 (VPR 696) (Biacore, Inc., Piscataway, N.J.).
Samples were incubated for 2 months at 2-8° C. prior to sample treatment by aluminum dissolution, followed by the final Biacore analysis.

## OCCOc1ccccc1 [2-phenoxyethanol]
[1]
  AME test criteria passed (USP, EP-B, EP-A): did not pass EP-B or EP-A

## C[CH2][Hg][S]c1ccccc1C(=O)[O-].[Na+] [thimerosal]
[2]
  impact on the thermal stability of HPV type 18 (DSC): greatest impact
[3]
  average relative in vitro antigenicity: 80%
